Source: patent US20080113908A1, “Use of CRF receptor agonists for the treatment or Prophylaxis of diseases, for example Neurodegenerative diseases” (SmithKline Beecham plc, priority 2000, published 2008)
pEC50: −log10 of the molar value.

What was measured:
[1] = target: cerebellar granule neurones; assay type: cell-based, rat; settings: 48 h
Description: Cerebellar granule neurones were used in the examples to test neuroprotection by CRF receptor agonists. Cerebellar granule neurones (CGNs) undergo apoptosis during the first few weeks of postnatal life, and in culture require mildly depolarising concentrations of KCl (25 mM) for their survival and maturation (S. R: D'Mello et al., Proc. Natl. Acad. Sci. USA 90, 10989-10993, 1993). The growth signal provided by KCl depends upon activation of the phosphatidylinositol 3-kinase (PI 3-kinase) pathway, and pharmacological inhibition of PI 3-kinase in differentiated granule neurones leads to apoptotic death in the CGNs (T. M. Miller et al., J. Biol. Chem., 272, 9847-9853, 1997). Thus, cultured CGNs represent a suitable model to study mechanisms of programmed cell death, and to identify putative neuroprotective signalling pathways.
Assay 1: Cerebellar granule neurones prepared from postnatal day 8 Sprague Dawley rat pups were used for experiments on death induced by inhibition of PI 3-kinase. General culture methods are described in S. D. Skaper et al. in Methods in Neurosciences, Vol. 2 (Conn P. M., ed), pp. 17-33. Academic Press, San Diego, 1990. At 8-9 days in vitro (DIV), granule neurone cultures were shifted to phenol red-free Dulbecco's modified Eagle's medium lacking serum, and containing 0.05% bovine serum albumin and 25 mM KCl. Death was induced by addition of the PI 3-kinase inhibitor LY 294002 (75 μM). CRF or CRF agonist peptides (urotensin 1, urocortin, sauvagine) were added at different concentrations (from 0.3nM to 300 nM or 1000 nM) together with LY 294002. Forty-eight hours later neuronal survival was quantified by a colorimetric reaction MTT. Absolute MTT values obtained were normalised for small differences in interexperiment plating densities by scaling to the mean of sham-treated sister cultures (defined as 100%).
Results are shown in Table 1 below and in graphical form in FIG. 1, which show the percentage mean neuronal survival (and standard deviation), when in the presence of the relevant CRF receptor agonists and LY 294002, as a function of agonist concentration. […] Urotensin 1, urocortin and sauvagine were also neuroprotective albeit with lower potency (<1 μM).

[2] = tested on: cerebellar granule neurones; assay: Assay 3: intracellular cyclic AMP enzyme immunoassay; assay type: cell-based, rat; settings: agonist 0 to 30 nM, 15 min, 0.5 mM IBMX
Description: Assay 3: The production of cAMP by the CRF receptor agonist peptides CRF, urotensin 1, urocortin and sauvagine was measured as follows. This assay can be used analogously for any putative CRF receptor agonists including non-peptide agonists.
Intracellular cyclic AMP was measured with a cAMP 2-site enzyme immunoassay system (trade mark BIOTRAK, commercially available from Amersham Pharmacia Biotech, PO Box 164, Rainham, Essex RM13 8JZ, United Kingdom, Amersham catalogue number RPN225), based upon the use of a sensitive and highly specific capture antibody for cyclic AMP:
Cerebellar granule neurones were seeded in polylysine-coated […] plates, 3.5×10^5 cells per 48-well, in Basal medium Eagle's containing 10% fetal calf serum, 25 mM KCl, and antibiotics. At 8-9 days in vitro, granule neurone cultures were shifted to serum-free plating medium (0.4 ml) with 0.5 mM IBMX (to inhibit the breakdown of cyclic AMP) for 15 min (37° C.). Wells then received 0.1 ml of test peptide (5× final concentration). Generally 1 μM is the preferable final concentration for a putative CRF agonist under test, though different (e.g. lower) concentrations can be used as shown for the peptide agonists in FIG. 3. Incubation was continued for 15 min. Test medium was removed and the plate placed on dry ice, and stored at −140° C. Cyclic AMP analysis was performed the following day.
Cells were then lysed with the reagent provided with the BIOTRAK kit. Intracellular content of cyclic AMP in the lysates was assayed following the manufacturer's instructions. A standard curve was constructed using the cyclic AMP calibration provided, with the quantity of bound cyclic AMP being inversely proportional to the amount of second (chromogenic) antibody bound to the reaction wells. The colour product was read with an ELISA plate reader, and was a function of the amount of cyclic AMP in the unknown sample.

“H-SQEPPISLDLTFHLLREVLEMTKADQLAQQAHNNRKLLDIA-NH2 [CRF]” was tested, and the pEC50 [1] was ~8.00 and the “cAMP synthesis induced by agonist (FIG. 3)” value [2] was “cAMP production increased with agonist concentration”.
